# ChEMBL document CHEMBL3593172, “4-(N-Phenyl-N'-substituted benzenesulfonyl)-6-(4-hydroxyphenyl)quinolines as inhibitors of mammalian target of rapamycin” (Bioorg Med Chem, 2015)
# Calls of active or inactive are those of the source. No cut-off for these calls is given here.
# What was measured:
# MIA PaCa-2 [1] = assay: Effect on P110alpha expression in human MIAPaCa2 cells at 5 to 10 uM measured after 2 to 4 hrs by Western blot analysis; assay type: functional, cell-based
# PC-3 [2] = assay: Cytotoxicity against human PC3 cells assessed as growth inhibition at 30 uM after 24 to 48 hrs by MTT assay relative to control; assay type: functional; conditions: read-out: GI
# HepG2 [3] = assay: Cytotoxicity against human HepG2 cells assessed as growth inhibition at 10 uM after 24 to 48 hrs by MTT assay relative to control; assay type: functional; conditions: read-out: GI
# [4] = Cell cycle arrest in human MIAPaCa2 cells assessed as accumulation at G1 phase at 30 uM after 24 hrs by propidium iodide staining-based flow cytometric analysis (reference value: 51%); assay type: functional; conditions: MIA PaCa-2
# [5] = Cell cycle arrest in human MIAPaCa2 cells assessed as accumulation at S phase at 10 uM after 24 hrs by propidium iodide staining-based flow cytometric analysis (reference value: […]%); assay type: functional; conditions: MIA PaCa-2
# HepG2 [6] = assay: Cytotoxicity against human HepG2 cells assessed as growth inhibition at 100 uM after 24 to 48 hrs by MTT assay relative to control; assay type: functional; conditions: read-out: GI
# [7] = Cell cycle arrest in human MIAPaCa2 cells assessed as accumulation at G1 phase at 20 uM after 24 hrs by propidium iodide staining-based flow cytometric analysis (reference value: 51%); assay type: functional; conditions: MIA PaCa-2
# [8] = Cytotoxicity against human MIAPaCa2 cells assessed as growth inhibition at 100 uM after 24 to 48 hrs by MTT assay relative to control; assay type: functional; conditions: MIA PaCa-2, read-out: GI
# [9] = Disruption of mitochondrial membrane potential in human MIAPaCa2 cells at 30 uM after 24 hrs by Rh123 dye-based flow cytometric analysis (reference value: 6%); assay type: functional, MIA PaCa-2
# MIA PaCa-2 [10] = assay: Effect on mTORC2 complex in human MIAPaCa2 cells assessed as p-Akt phosphorylation at S473 at 5 to 10 uM measured at 2 hrs by Western blot analysis; assay type: cell-based
# HCT-116 [11] = assay: Cytotoxicity against human HCT116 cells assessed as growth inhibition at 10 uM after 24 to 48 hrs by MTT assay relative to control; assay type: functional; conditions: read-out: GI
# [12] = Cell cycle arrest in human MIAPaCa2 cells assessed as accumulation at S phase at 20 uM after 24 hrs by propidium iodide staining-based flow cytometric analysis (reference value: […]%); assay type: functional; conditions: MIA PaCa-2
# [13] = Cell cycle arrest in human MIAPaCa2 cells assessed as accumulation at G1 phase at 10 uM after 24 hrs by propidium iodide staining-based flow cytometric analysis (reference value: 51%); assay type: functional; conditions: MIA PaCa-2
# PC-3 [14] = assay: cells; conditions: Homo sapiens, PC-3, 48 h
# Description: Cytotoxicity against human PC3 cells assessed as inhibition of cell proliferation after 48 hrs by MTT assay
# [15] = Disruption of mitochondrial membrane potential in human MIAPaCa2 cells at 20 uM after 24 hrs by Rh123 dye-based flow cytometric analysis (reference value: 6%); assay type: functional, MIA PaCa-2
# HCT-116 [16] = assay: Cytotoxicity against human HCT116 cells assessed as growth inhibition at 30 uM after 24 to 48 hrs by MTT assay relative to control; assay type: functional; conditions: read-out: GI
# HL-60 [17] = assay: Cytotoxicity against human HL60 cells assessed as growth inhibition at 30 uM after 24 to 48 hrs by MTT assay relative to control; assay type: functional; conditions: read-out: GI
# HL-60 [18] = assay: Cytotoxicity against human HL60 cells assessed as growth inhibition at 100 uM after 24 to 48 hrs by MTT assay relative to control; assay type: functional; conditions: read-out: GI
# HepG2 [19] = assay: cells; conditions: Homo sapiens, HepG2, 48 h
# Description: Cytotoxicity against human HepG2 cells assessed as inhibition of cell proliferation after 48 hrs by MTT assay
# HepG2 [20] = assay: Cytotoxicity against human HepG2 cells assessed as growth inhibition at 30 uM after 24 to 48 hrs by MTT assay relative to control; assay type: functional; conditions: read-out: GI
# [21] = Cell cycle arrest in human MIAPaCa2 cells assessed as apoptotic cells at 30 uM after 24 hrs by propidium iodide staining-based flow cytometric analysis (reference value: 0.1%); assay type: functional; conditions: MIA PaCa-2
# [22] = Cell cycle arrest in human MIAPaCa2 cells assessed as accumulation at G2 phase at 10 uM after 24 hrs by propidium iodide staining-based flow cytometric analysis (reference value: 5%); assay type: functional; conditions: MIA PaCa-2
# [23] = Cytotoxicity against human MIAPaCa2 cells assessed as growth inhibition at 30 uM after 24 to 48 hrs by MTT assay relative to control; assay type: functional; conditions: MIA PaCa-2, read-out: GI
# HL-60 [24] = assay: Cytotoxicity against human HL60 cells assessed as growth inhibition at 10 uM after 24 to 48 hrs by MTT assay relative to control; assay type: functional; conditions: read-out: GI
# [25] = Cell cycle arrest in human MIAPaCa2 cells assessed as apoptotic cells at 10 uM after 24 hrs by propidium iodide staining-based flow cytometric analysis (reference value: 0.1%); assay type: functional; conditions: MIA PaCa-2
# HCT-116 [26] = assay: Cytotoxicity against human HCT116 cells assessed as growth inhibition at 100 uM after 24 to 48 hrs by MTT assay relative to control; assay type: functional; conditions: read-out: GI
# HCT-116 [27] = assay: cells; conditions: Homo sapiens, HCT-116, 48 h
# Description: Cytotoxicity against human HCT116 cells assessed as inhibition of cell proliferation after 48 hrs by MTT assay
# HL-60 [28] = assay: cells; conditions: Homo sapiens, HL-60, 48 h
# Description: Cytotoxicity against human HL60 cells assessed as inhibition of cell proliferation after 48 hrs by MTT assay
# [29] = Cell cycle arrest in human MIAPaCa2 cells assessed as accumulation at G2 phase at 20 uM after 24 hrs by propidium iodide staining-based flow cytometric analysis (reference value: 5%); assay type: functional; conditions: MIA PaCa-2
# [30] = Cell cycle arrest in human MIAPaCa2 cells assessed as apoptotic cells at 20 uM after 24 hrs by propidium iodide staining-based flow cytometric analysis (reference value: 0.1%); assay type: functional; conditions: MIA PaCa-2
# [31] = Cytotoxicity against human MIAPaCa2 cells assessed as growth inhibition at 10 uM after 24 to 48 hrs by MTT assay relative to control; assay type: functional; conditions: MIA PaCa-2, read-out: GI
# [32] = Cell cycle arrest in human MIAPaCa2 cells after 24 hrs by propidium iodide staining-based flow cytometric analysis; assay type: functional; conditions: MIA PaCa-2
# cells = conditions: Homo sapiens, MIA PaCa-2, 48 h
# Description: Cytotoxicity against human MIAPaCa2 cells assessed as inhibition of cell proliferation after 48 hrs by MTT assay
# [33] = Disruption of mitochondrial membrane potential in human MIAPaCa2 cells at 10 uM after 24 hrs by Rh123 dye-based flow cytometric analysis (reference value: 6%); assay type: functional, MIA PaCa-2
# [34] = Cell cycle arrest in human MIAPaCa2 cells assessed as accumulation at S phase at 30 uM after 24 hrs by propidium iodide staining-based flow cytometric analysis (reference value: […]%); assay type: functional; conditions: MIA PaCa-2
# PC-3 [35] = assay: Cytotoxicity against human PC3 cells assessed as growth inhibition at 10 uM after 24 to 48 hrs by MTT assay relative to control; assay type: functional; conditions: read-out: GI
# [36] = Cell cycle arrest in human MIAPaCa2 cells assessed as accumulation at G2 phase at 30 uM after 24 hrs by propidium iodide staining-based flow cytometric analysis (reference value: 5%); assay type: functional; conditions: MIA PaCa-2
# PC-3 [37] = assay: Cytotoxicity against human PC3 cells assessed as growth inhibition at 100 uM after 24 to 48 hrs by MTT assay relative to control; assay type: functional; conditions: read-out: GI
structure (smiles),measurement,setting,value
CC(=O)Nc1ccc(S(=O)(=O)N(c2ccccc2)c2ccnc3ccc(-c4ccc(O)cc4)cc23)cc1,Activity,MIA PaCa-2 [1],inactive
same,inhibition of growth at 30 µM,PC-3 [2],14%
same,inhibition of growth at 10 µM,HepG2 [3],5%
same,Activity,[4],67%
same,Activity,[5],22%
same,inhibition of growth at 100 µM,HepG2 [6],87%
same,Activity,[7],66%
same,inhibition of growth at 100 µM,[8],89%
same,Activity,[9],42%
same,Activity,MIA PaCa-2 [10],inactive
same,inhibition of growth at 10 µM,HCT-116 [11],19%
same,Activity,[12],21%
same,Activity,[13],59%
same,IC50,PC-3 [14],75 µM
same,Activity,[15],23%
same,inhibition of growth at 30 µM,HCT-116 [16],25%
same,inhibition of growth at 30 µM,HL-60 [17],93%
same,inhibition of growth at 100 µM,HL-60 [18],94%
same,IC50,HepG2 [19],22 µM
same,inhibition of growth at 30 µM,HepG2 [20],83%
same,Activity,[21],6%
same,Activity,[22],19%
same,inhibition of growth at 30 µM,[23],89%
same,inhibition of growth at 10 µM,HL-60 [24],25%
same,Activity,[25],1%
same,inhibition of growth at 100 µM,HCT-116 [26],29%
same,IC50,HCT-116 [27],< 100 µM
same,IC50,HL-60 [28],16 µM
same,Activity,[29],13%
same,Activity,[30],1%
same,inhibition of growth at 10 µM,[31],64%
same,Activity,[32],Dose-dependent effect
same,IC50,cells,7 µM
same,Activity,[33],13%
same,Activity,[34],19%
same,inhibition of growth at 10 µM,PC-3 [35],12%
same,Activity,[36],15%
same,inhibition of growth at 100 µM,PC-3 [37],25%
